From PubChem BioAssay (NCI)
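Cultured in 96-well plates, cells were exposed to test compound for 48 hours across five concentrations. GI50 = concentration required for 50% inhibition of growth. At the TGI there is no net growth.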

Tests used:
Test in all cases: growth of human tumour cells (NCI), 48 h
HS 578T breast = test system: HS 578T breast
DU-145 prostate = test system: DU-145 prostate
COLO 205 colon = test system: COLO 205 colon
EKVX NSCLC = test system: EKVX NSCLC
MALME-3M melanoma = test system: MALME-3M melanoma
PC-3 prostate = test system: PC-3 prostate
UACC-257 melanoma = test system: UACC-257 melanoma
OVCAR-4 ovarian = test system: OVCAR-4 ovarian
K-562 leukemia = test system: K-562 leukemia
IGROV1 ovarian = test system: IGROV1 ovarian
SK-MEL-28 melanoma = test system: SK-MEL-28 melanoma
SN12C renal = test system: SN12C renal
MDA-MB-435 = test system: MDA-MB-435
SK-MEL-5 melanoma = test system: SK-MEL-5 melanoma
BT-549 breast = test system: BT-549 breast
SNB-75 CNS = test system: SNB-75 CNS
NCI/ADR-RES ovarian = test system: NCI/ADR-RES ovarian
MCF7 breast = test system: MCF7 breast
U251 CNS = test system: U251 CNS
NCI-H23 lung = test system: NCI-H23 lung
OVCAR-8 ovarian = test system: OVCAR-8 ovarian
SF-295 CNS = test system: SF-295 CNS
ACHN renal = test system: ACHN renal
RXF 393 renal = test system: RXF 393 renal
786-0 renal = test system: 786-0 renal
SF-268 CNS = test system: SF-268 CNS
NCI-H226 lung = test system: NCI-H226 lung
SW-620 colon = test system: SW-620 colon
SK-MEL-2 melanoma = test system: SK-MEL-2 melanoma
M14 melanoma = test system: M14 melanoma

O=C(CNc1nc(-c2ccccc2)cs1)Nc1ccc(Cl)cc1[N+](=O)[O-]
TGI (HS 578T breast): 9.58 µM | GI50 (DU-145 prostate): 4.78 µM | TGI (DU-145 prostate): 18.7 µM | GI50 (COLO 205 colon): 2.61 µM | TGI (COLO 205 colon): 5.91 µM | GI50 (EKVX NSCLC): 1.82 µM | TGI (EKVX NSCLC): 9.71 µM | GI50 (MALME-3M melanoma): 2.21 µM | TGI (MALME-3M melanoma): 5.51 µM | GI50 (PC-3 prostate): 2.78 µM | TGI (PC-3 prostate): 16.2 µM | GI50 (UACC-257 melanoma): 5.13 µM | TGI (UACC-257 melanoma): 17 µM | GI50 (OVCAR-4 ovarian): 3.26 µM | TGI (OVCAR-4 ovarian): 13 µM | GI50 (K-562 leukemia): 2.49 µM | TGI (K-562 leukemia): > 100 µM | GI50 (IGROV1 ovarian): 2.9 µM | TGI (IGROV1 ovarian): 12.1 µM | GI50 (SK-MEL-28 melanoma): 2.9 µM | TGI (SK-MEL-28 melanoma): 8.79 µM | GI50 (SN12C renal): 2.81 µM | TGI (SN12C renal): 10.7 µM | GI50 (MDA-MB-435): 3.25 µM | TGI (MDA-MB-435): 9.42 µM | GI50 (SK-MEL-5 melanoma): 1.93 µM | TGI (SK-MEL-5 melanoma): 4.26 µM | GI50 (BT-549 breast): 2.84 µM | TGI (BT-549 breast): 5.89 µM | GI50 (SNB-75 CNS): 1.24 µM | TGI (SNB-75 CNS): 7.02 µM | GI50 (NCI/ADR-RES ovarian): 2.31 µM | TGI (NCI/ADR-RES ovarian): 6.53 µM | GI50 (MCF7 breast): 2.84 µM | TGI (MCF7 breast): 10.3 µM | GI50 (U251 CNS): 2.06 µM | TGI (U251 CNS): 6.56 µM | GI50 (NCI-H23 lung): 3.08 µM | TGI (NCI-H23 lung): 12.6 µM | GI50 (OVCAR-8 ovarian): 3.25 µM | TGI (OVCAR-8 ovarian): 13.1 µM | GI50 (SF-295 CNS): 2.71 µM | TGI (SF-295 CNS): 11.1 µM | GI50 (ACHN renal): 2.77 µM | TGI (ACHN renal): 10.5 µM | GI50 (RXF 393 renal): 1.99 µM | TGI (RXF 393 renal): 6.5 µM | GI50 (786-0 renal): 3.75 µM | TGI (786-0 renal): 14.2 µM | GI50 (SF-268 CNS): 2.1 µM | TGI (SF-268 CNS): 7.08 µM | GI50 (NCI-H226 lung): 2.64 µM | TGI (NCI-H226 lung): 13 µM | GI50 (SW-620 colon): 4.1 µM | TGI (SW-620 colon): 14.4 µM | GI50 (SK-MEL-2 melanoma): 3.04 µM | TGI (SK-MEL-2 melanoma): 9.74 µM | GI50 (M14 melanoma): 3.4 µM | TGI (M14 melanoma): 12.7 µM
